Laboratory results: the supplement of paper PMC10307832

Assays:
Assay in all cases: relative viability (nuclei count vs DMSO), 5 days (fraction); higher = more cells survive
Vismodegib + Pemetrexed = compound: CS(=O)(=O)c1ccc(C(=O)Nc2ccc(Cl)c(-c3ccccn3)c2)c(Cl)c1 [Vismodegib] + Nc1nc2[nH]cc(CCc3ccc(C(=O)N[C@@H](CCC(=O)O)C(=O)O)cc3)c2c(=O)[nH]1 [Pemetrexed] (partner 0.2 µM)
How it was run: (§1)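 Dosing by pin tool came one day after lung cancer cell lines were seeded in 1536-well plates, using either one drug or a fixed anchor-drug dose plus five library-drug doses (not always all listed) in √10 steps. After 5 days, nuclei were counted on 4× images. Relative viability is treated-well nuclei count divided by vehicle-well nuclei count, and values are medians of duplicate plates.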

VE-821 + Olaparib = compound: CS(=O)(=O)c1ccc(-c2cnc(N)c(C(=O)Nc3ccccc3)n2)cc1 [VE-821] + O=C(c1cc(Cc2n[nH]c(=O)c3ccccc23)ccc1F)N1CCN(C(=O)C2CC2)CC1 [Olaparib] (partner 8 µM)
How it was run: as §1

Vismodegib + Olaparib = compound: CS(=O)(=O)c1ccc(C(=O)Nc2ccc(Cl)c(-c3ccccn3)c2)c(Cl)c1 [Vismodegib] + O=C(c1cc(Cc2n[nH]c(=O)c3ccccc23)ccc1F)N1CCN(C(=O)C2CC2)CC1 [Olaparib] (partner 8 µM)
How it was run: as §1

Vismodegib + Phenformin = compound: CS(=O)(=O)c1ccc(C(=O)Nc2ccc(Cl)c(-c3ccccn3)c2)c(Cl)c1 [Vismodegib] + N=C(N)NC(=N)NCCc1ccccc1 [Phenformin] (partner 250 µM)
How it was run: as §1

Cell Line	relative viability (Vismodegib + Pemetrexed; first compound 0.08 µM)	relative viability (Vismodegib + Pemetrexed; first compound 0.253 µM)	relative viability (Vismodegib + Pemetrexed; first compound 0.8 µM)	relative viability (Vismodegib + Pemetrexed; first compound 2.53 µM)	relative viability (Vismodegib + Pemetrexed; first compound 8 µM)	relative viability (VE-821 + Olaparib; first compound 0.08 µM)	relative viability (VE-821 + Olaparib; first compound 0.253 µM)	relative viability (VE-821 + Olaparib; first compound 0.8 µM)	relative viability (VE-821 + Olaparib; first compound 2.53 µM)	relative viability (VE-821 + Olaparib; first compound 8 µM)	relative viability (Vismodegib + Olaparib; first compound 0.08 µM)	relative viability (Vismodegib + Olaparib; first compound 0.253 µM)	relative viability (Vismodegib + Olaparib; first compound 0.8 µM)	relative viability (Vismodegib + Olaparib; first compound 2.53 µM)	relative viability (Vismodegib + Olaparib; first compound 8 µM)	relative viability (Vismodegib + Phenformin; first compound 0.08 µM)	relative viability (Vismodegib + Phenformin; first compound 0.253 µM)	relative viability (Vismodegib + Phenformin; first compound 0.8 µM)	relative viability (Vismodegib + Phenformin; first compound 2.53 µM)	relative viability (Vismodegib + Phenformin; first compound 8 µM)
EPLC-272H	0.285	0.418	0.324	0.317	0.33	0.949	0.829	0.504	0.608	0.255	0.839	0.69	0.674	0.783	0.837	0.348	0.313	0.316	0.271	0.264
LOU-NH91	0.349	0.385	0.42	0.416	0.414	0.988	0.921	0.924	0.916	0.847	0.873	0.907	0.936	0.904	0.917	0.66	0.68	0.67	0.75	0.681
RERF-LC-KJ	0.491	0.454	0.468	0.508	0.479	0.946	0.819	0.851	0.698	0.49	0.985	0.826	0.785	0.862	0.96	0.422	0.427	0.432	0.437	0.455
NCI-H1975	0.309	0.264	0.293	0.263	0.287	0.883	0.715	0.672	0.57	0.334	0.736	0.788	0.788	0.83	0.791	0.402	0.408	0.398	0.424	0.389
SK-MES-1	0.853	0.928	0.871	0.972	0.825	0.885	0.747	0.638	0.531	0.243	0.701	0.656	0.62	0.707	0.685	0.625	0.647	0.669	0.635	0.631
NCI-H2170	0.254	0.272	0.304	0.253	0.284	0.656	0.487	0.395	0.276	0.21	0.624	0.549	0.657	0.581	0.584	0.416	0.409	0.444	0.433	0.39
NCI-H661	0.915	0.854	0.887	0.876	0.941	0.766	0.801	0.671	0.708	0.687	0.837	0.69	0.745	0.715	0.718	0.31	0.264	0.3	0.259	0.291
HOP-62	0.305	0.295	0.263	0.377	0.272	0.375	0.477	0.418	0.212	0.252	0.403	0.47	0.387	0.396	0.345	0.645	0.637	0.665	0.698	0.569
HCC-15	0.215	0.215	0.265	0.219	0.228	0.77	0.703	0.894	0.735	0.558	0.652	0.709	0.718	0.737	0.608	0.511	0.458	0.472	0.496	0.441
A-427	1.08	0.939	0.912	1.01	0.902	0.797	0.71	0.618	0.556	0.389	0.743	0.804	0.642	0.675	0.786	0.307	0.385	0.385	0.314	0.283
